Measurements taken from patent US20220411448A1, “CHROMENE-4-ONE DERIVATIVES AS BRAIN-DERIVED NEUROTROPHIC FACTOR (BDNF) MIMETICS” (FLORATEK PHARMA AG, priority 2019, published 2022).

Assays:
[1] = tested on: organotypic hippocampal brain slices with IAA lesion; assay: Organotypic brain slices, iodoacetic acid injury: cell survival (MTT); assay type: cell-based, mouse; details: SND118 10 and 30 μM; SND124 30 μM; 7,8 DHF 10 μm; IAA 250 μM for 110 min
Experimental: (§1) Preparation of the organotypic brain slices were performed by decapitation of the P9/P10 mouse pups, removing skin and skull and immersing brains in slicing medium (Opti-MEM 1, […]). Brains were hemisected and hippocampi were isolated. Hippocampi were placed on the cutting disc of a McIlwain Tissue Chopper. […] hippocampal slices were chopped transversely. A number of 4 slices per hippocampus were placed on porous (0.4 μM) transparent membrane inserts (Millipore) and incubated for 1 h on ice in HBSS containing 10 mM glucose. Afterwards inserts were transferred to fresh 24-well plates containing 250-300 μl culture medium (50% MEM/EBSS, 25% horse serum, 25% CMF-HBSS, 25 mM glucose, 0.5% pen/strep). Slices were maintained at 37° C. and 5% CO2.
(§2) On DV15, brain slices were pretreated with SND derivatives test compounds and the reference 7,8DHF at various concentrations (between […]) for 30 min, followed by the addition of iodoacetic acid (IAA) at 250 μM for 110 min, when cell survival, MMP and toxicity were measured.
Cell survival was measured by the MTT assay. For the determination of mitochondrial membrane potential, treated organotypic brain slices were loaded with the mitochondrial fluorescent dye, tetramethylrhodamine methyl ester (TMRM) at a final concentration of 100 nM in PBS and incubated for 45 min at 37° C. The TMRM containing solution was aspirated and slices were transferred into new well plates containing the appropriate amount of PBS. Fluorescence was measured with a plate-reader (Cytation 5) using wavelengths of excitation and emission of 548 and 574 nm, respectively (area scan). Values were calculated as percent of control values (vehicle control). Toxicity of the treatment was measured by LDH. No toxicity was observed.

TrkB receptor = assay: Activation of TrkB receptor: phosphorylation in cortical neurons (WES capillary immunoassay); assay type: cell-based, mouse
Experimental: On the day of preparation (DIV1) cortical neurons were seeded on poly-D-lysine pre-coated 6-well plates at a density of 1.25*10^6 cells per well and cultured at 37° C.; 95% humidity and 5% CO2 until […] with a half medium exchange on DIV4-6. On DIV10 cells are treated with test item TI (SND118) and control Rh (7,8DHF) at different concentrations for 15 min. The experiment was carried out with n=6 technical replicates per condition, vehicle treated cells served as control. Cells were lysed in 150 μL cold RIPA buffer [50 mM Tris pH 7.4, 1% Nonidet P40, 0.25% Na-deoxy-cholate, 150 mM NaCl, 1 mM EDTA supplemented with freshly added 1 μM NaF, 0.2 mM Na-ortho-vanadate, 80 μM Glycerophosphate, protease (Calbiochem) and phosphatase (Sigma) inhibitor cocktail.
Phosphorylation of the TrkB receptor was detected using the following rabbit anti-Tyr specific antibodies: anti-TrkB Y515, Y706/707 and Y816 and compared with total TrkB detected with anti-TrkB antibody (Abcam). Antibody dilutions and protein amounts were optimized for signal specificity.
Automated separation and immunostaining of total and phospho TrkB was carried out using a capillary-based immunoassay, WES™ (Proteinsimple®). Samples were applied to a 25 capillary cartridge with a 2 to 440 kDa matrix, at an optimized total protein concentration. Sample loading, separation, immunoprobing, washing, detection and quantitative data analysis were performed automatically by WES™ Western system (Compass software V 4.0.0). The areas under the curve were used for the analysis and the phosphorylated versus vehicle or total TrkB signal ratio was calculated and used for statistics.

[2] = tested on: cortical neurons treated with glutamate; assay: Neuron protection from glutamate injury: mitochondrial membrane potential (rhodamine 123); assay type: cell-based, rat
Experimental: (§3) Cortices were harvested from E19 rat embryos and dissociated enzymatically and mechanically. Dissociated cells were plated in poly-D-lysine coated imaging plates (384 wells), in 70 μL of neuronal growth medium (Neurocult Neuronal Basal medium+SM1 neuronal supplements+L-glutamine+HEPES). Cells were incubated at 37° C., 5% CO2 and half of the medium was changed twice per week.
For mitochondrial membrane potential measurement (MMP) neurons were cultured 10 to 14 days in vitro, the growth medium was discarded and wells were washed with 50 μL of extracellular saline. Saline was removed and replaced by 25 μL of staining solution (rhodamine 123 in a saline solution containing 1.5 mM Calcium, pyruvate and verapamil). The cells were incubated 30 min at 37° C./5% CO2. 5 μL of a staining solution with or without the test substances at 6× concentrated was added in the wells. […]
Glutamate was prepared 6× concentrated (6 μL on top of the 30 μL) in saline or saline+test compounds 1× concentrated depending on the conditions. […] Basal MMP levels were measured for 1 minute before automated addition of the compounds or controls while recording. MMP signals were further recorded for 30 minutes to 1 hour. […]
Rhodamine 123 is a cationic fluorescent dye that is used to specifically label respiring mitochondria. […] Loss of potential will result in loss of the dye and, therefore, the fluorescence intensity.

[3] = tested on: organotypic hippocampal brain slices with IAA lesion; assay: Organotypic brain slices, iodoacetic acid injury: mitochondrial membrane potential (TMRM); assay type: cell-based, mouse; details: SND118 10 and 30 μM; SND124 30 μM; IAA 250 μM for 110 min
Experimental: as §1, §2
Cell survival was measured by the MTT assay. […] Fluorescence was measured with a plate-reader (Cytation 5) using wavelengths of excitation and emission of 548 and 574 nm, respectively (area scan). Values were calculated as percent of control values (vehicle control). Toxicity of the treatment was measured by LDH. […]

MAO-A = target: T1, MAO-A (Homo sapiens, UniProt P21397); assay: In vitro inhibition of monoamine oxidase type A (BioVision MAO-A inhibitor screening kit); assay type: biochemical; details: read-out: IC50 in vitro inhibition of MOA-A enzyme
T1 construct: purchased BioVision K796
T1 sequence (P21397 1-527): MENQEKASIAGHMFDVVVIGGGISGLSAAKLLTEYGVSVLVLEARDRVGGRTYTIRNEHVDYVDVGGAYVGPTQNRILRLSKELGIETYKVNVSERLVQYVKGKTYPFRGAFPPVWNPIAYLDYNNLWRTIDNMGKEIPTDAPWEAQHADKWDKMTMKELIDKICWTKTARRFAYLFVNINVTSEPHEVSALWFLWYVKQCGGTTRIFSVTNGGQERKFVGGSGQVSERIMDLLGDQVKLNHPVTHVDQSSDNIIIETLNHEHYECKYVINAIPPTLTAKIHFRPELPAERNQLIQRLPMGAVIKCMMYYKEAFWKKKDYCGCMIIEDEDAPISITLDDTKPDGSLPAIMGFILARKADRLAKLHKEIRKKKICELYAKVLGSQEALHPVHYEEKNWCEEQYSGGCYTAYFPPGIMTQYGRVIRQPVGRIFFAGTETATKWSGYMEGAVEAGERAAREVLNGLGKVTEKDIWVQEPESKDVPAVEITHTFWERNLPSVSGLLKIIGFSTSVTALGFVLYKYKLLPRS
Experimental: BioVision's MAO-A inhibitor screening kit (BioVision Cat no. K796) was used to assess inhibitory effects of the test items (TIs) on MAO-A in a fluorescent assay.
The assay was carried out according to the provided protocol: TIs were diluted to 10× with MAO-A Assay Buffer before use. 10 μl of test inhibitor (S), working solution of Inhibitor Control (IC; Clorgyline, 1 μM final in the well) and MAO-A Assay Buffer (Enzyme Control; EC) were added into assigned wells. 50 μl of diluted MAO-A Enzyme Solution was added to each well and incubated for 10 min at RT. To check the possible inhibitory effect of TIs on Developer, one well with TI was prepared parallel and incubated with 50 μl of a H2O2 mix instead of the MAO-A Enzyme Solution.
The reaction was started by adding 40 μl of the prepared substrate mix. Measurement of the fluorescence (Ex/Em=535/587 nm) was done kinetically at 25° C. for 10-30 min. Two time points (t1 and t2) in the linear range of the plot were chosen for further calculations (2 min and 6 min). The slope for all Sample Compounds [S], Enzyme Control [EC], Vehicle Control [VC] and Background Control [BC] were calculated by dividing the net ARFU (RFU2-RFU1) values by the time Δt (t2−t1). The slope obtained for the Background Control reaction was subtracted from the [S], [EC] and [VC] values. […]

[4] = tested on: cortical neurons treated with glutamate; assay: Neuron protection from glutamate injury: intracellular calcium measurement; assay type: cell-based, rat
Experimental: as §3
For Calcium measurement, the cells were cultured for 10 to 14 days in vitro, the growth medium was discarded and replaced by 25 μL of a calcium probe in a saline solution (containing 1.5 mM Calcium) for 30 min at 37° C./5% CO2. 5 μL of calcium probe in a saline solution with or without the test substances at 6× concentrated was added in the wells for the pre-treatment step. The wells were further incubated 30 min at 37° C./5% CO2
For calcium measurement, at the end of the pre-treatment, glutamate was prepared at 6× concentrated (6 μL on top of the 30 μL). The final vehicle concentration in all conditions was adjusted. Basal calcium levels was measured for 1 minute before automated addition of the compounds or controls while recording. Intracellular calcium signals was further recorded for 5 to 10 minutes at a sampling rate of around 1 point per second. Each experimental condition was tested in quadruplicate wells.

[5] = tested on: primary cultures of cerebral cortical astrocytes; details: glutamate 200 μM, positive control; cited from earlier work

O=c1cc(-c2ccccc2)oc2c(O)c(O)ccc12 [7,8DHF, 7,8-dihydroxyflavone, reference compound]
cell survival upon IAA lesion (MTT) [1]: no effect
phosphorylation of the TrkB receptor at sites Tyr 515 and Tyr 816 (TrkB receptor; 1 and 2 μM): induced a lower phosphorylation, which did not reach statistical significance
phosphorylation of TrkB at Tyr residue 706/707 versus the vehicle (TrkB receptor; SND118 2 μM): neither the derivative nor the 7,8DHF reached statistical significance

C[C@]12N[C@H](Cc3ccccc31)c1ccccc12 [MK801, [(+)-5-methyl-10,11-dihydroxy-5H-dibenzo(a,d)cyclohepten-5,10-imine], reference compound]
mitochondria potential increased by glutamate (rhodamine 123) ([2]; MK801 10 μM, control compound): restored

CCNC(=O)Oc1ccc2c(=O)cc(-c3ccc(CCCC[P+](c4ccccc4)(c4ccccc4)c4ccccc4)cc3)oc2c1OC(=O)NCC.[Br-] [SND124, 4-[4-[7,8-Bis(ethylcarbamoyloxy)-4-oxo-chromen-2-yl]phenyl]-butyltriphenylphosphonium bromide]
mitochondria function (MMP, TMRM) after IAA lesion [3]: rescued mitochondria function
cell survival upon IAA lesion (MTT) [1]: statistically increase cell survival
IC50 (MAO-A): 20 µM

COc1c(O)ccc2c(=O)cc(-c3ccc(CCCC[P+](c4ccccc4)(c4ccccc4)c4ccccc4)cc3)oc12.[Br-] [SND135, (4-(4-(7-hydroxy-8-methoxy-4-oxo-4H-chromen-2-yl)phenyl)butyl)triphenylphosphonium bromide]
mitochondria potential induced by glutamate (rhodamine 123) ([2]; SND135 between 3 and 30 μM, glutamate between 10 and 100 μM): decreases mitochondria potential
calcium release induced by glutamate ([4]; SND135 30 μM, glutamate 30 μM): decreased
calcium release induced by glutamate (maximum peak of calcium kinetic) ([4]; SND135 10 and 30 μM, glutamate 10 and 30 μM): decreases calcium release

N[C@@H](CCC(=O)O)C(=O)O [glutamate]
increase of glucose entry [5]: 20 to 30%
